Measurements reported in US8193193B2, “Agent for prevention or treatment of glaucoma” (Kowa Co., Ltd., priority 2005, dated 2012).

Key:
IOP [1] = assay: Ocular hypotensive effect after instillation, alone or in combination, in rabbits (change from initial IOP); format: in vivo, Japanese white rabbits; conditions: male JW rabbits, brinzolamide 1%, 50 μL; for persistence of ocular hypotensive action (FIG. 2): after 4 and also 5 hours from instillation, 1.5% solution; for persistence of ocular hypotensive action (FIG. 1): after 3 or 4 hours from instillation, 0.5% solution
Protocol: To examine usefulness of combination use of a Rho kinase inhibitor and a carbonic anhydrase inhibitor, the ocular hypotensive effects were compared by administering either of these drugs alone or both in combination to laboratory animals. (S)-(−)-1-(4-fluoro-5-isoquinolinesulfonyl)-2-methyl-1,4-homopiperazine-hydrochloride dihydrate was dissolved in physiological saline, and the solution was neutralized (pH 6.0) by adding sodium dihydrogenphosphate and sodium hydroxide to prepare a (S)-(−)-1-(4-fluoro-5-isoquinolinesulfonyl)-2-methyl-1,4-homopiperazine solution at a desired concentration. The commercially available “Eril® S Injection” (Asahi Kasei Pharma) was used as it was. The commercially available “Azopt® Ophthalmic Suspension 1%” (Alcon Japan Ltd.) was used as it was. The ocular hypotensive effect was examined after the combination use of (S)-(−)-1-(4-fluoro-5-isoquinolinesulfonyl)-2-methyl-1,4-homopiperazine and brinzolamide. As a control, the ocular hypotensive effect was also examined after the use of brinzolamide alone or (S)-(−)-1-(4-fluoro-5-isoquinolinesulfonyl)-2-methyl-1,4-homopiperazine alone. Similarly, the ocular hypotensive effect was examined after the combination use of hexahydro-1-(5-isoquinolinesulfonyl)-1H-1,4-diazepine and brinzolamide. As a control, the ocular hypotensive effect was also examined after the use of brinzolamide alone or hexahydro-1-(5-isoquinolinesulfonyl)-1H-1,4-diazepine alone. (S)-(−)-1-(4-fluoro-5-isoquinolinesulfonyl)-2-methyl-1,4-homopiperazine solution: 0.5% solution (instillation volume, 50 μL) Hexahydro-1-(5-isoquinolinesulfonyl)-1H-1,4-diazepine solution: fasudil hydrochloride hydrate injection (1.5% solution [trade name: Eril® S Injection]; instillation volume, 50 μL) Brinzolamide solution: brinzolamide ophthalmic solution ([trade name: Azopt® Ophthalmic Suspension 1%]; instillation volume, 50 μL) Laboratory animals: Japanese white rabbits (male JW rabbits, 5 animals per group) 1). One drop of 0.4% oxybuprocaine hydrochloride ophthalmic solution (trade name: Benoxil Ophthalmic Solution 0.4%) was instilled in both eyes of the laboratory animals for local anesthesia (only data for the instilled eyes are shown). 2) IOP was measured immediately before administration of the test compound solution as the initial IOP. 3) The brinzolamide solution was instilled in one eye of the laboratory animals, followed by the instillation of (S)-(−)-1-(4-fluoro-5-isoquinolinesulfonyl)-2-methyl-1,4-homopiperazine solution in the same eye. 4) At 1 hour, 2 hours, 3 hours, 4 hours, and 5 hours after the instillation of both drugs, one drop each of 0.4% oxybuprocaine hydrochloride ophthalmic solution was instilled in both eyes for local anesthesia, and IOP was measured. […]

IOP [2] = conditions: rabbits with normal IOP, cited from earlier work

SMILES	persistence of ocular hypotensive action (FIG. 2) (IOP [1])	persistence of ocular hypotensive action (FIG. 1) (IOP [1])	time after instillation from which IOP is lowered (IOP [2])	maximum IOP reduction (IOP [2]; instillation, concentration of 0.1%)
O=S(=O)(c1cccc2cnccc12)N1CCCNCC1 [hexahydro-1-(5-isoquinolinesulfonyl)-1H-1,4-diazepine]	ocular hypotensive effect disappeared	–	–	–
C[C@H]1CNCCCN1S(=O)(=O)c1cccc2cncc(F)c12 [(S)-(−)-1-(4-fluoro-5-isoquinolinesulfonyl)-2-methyl-1,4-homopiperazine]	–	ocular hypotensive effect disappeared	–	–
CCN[C@H]1CN(CCCOC)S(=O)(=O)c2sc(S(N)(=O)=O)cc21 [brinzolamide]	ocular hypotensive effect disappeared	ocular hypotensive effect disappeared	–	–
C[C@@H](N)c1ccc(C(=O)Nc2ccnc3[nH]ccc23)cc1 [Y-39983, 4-[(1R)-1-aminoethyl]-N-1H-pyrrolo[2,3-b]pyridin-4-ylbenzamide]	–	–	1 h	15 mmHg
